Assays:
human TGR5 receptor = biological target: T1, human TGR5 receptor (Homo sapiens, UniProt Q8TDU6); assay: Human TGR5 cAMP production assay (hTGR5-CHO cells, DiscoveRx cAMP XS+ kit); type: cell-based; details: luminescent cAMP assay, read-out: Human TGR5 Lum. cAMP Activity (EC50)
T1 construct: host or cells: CHO-K1 (hTGR5-CHO)
T1 sequence (Q8TDU6 1-330): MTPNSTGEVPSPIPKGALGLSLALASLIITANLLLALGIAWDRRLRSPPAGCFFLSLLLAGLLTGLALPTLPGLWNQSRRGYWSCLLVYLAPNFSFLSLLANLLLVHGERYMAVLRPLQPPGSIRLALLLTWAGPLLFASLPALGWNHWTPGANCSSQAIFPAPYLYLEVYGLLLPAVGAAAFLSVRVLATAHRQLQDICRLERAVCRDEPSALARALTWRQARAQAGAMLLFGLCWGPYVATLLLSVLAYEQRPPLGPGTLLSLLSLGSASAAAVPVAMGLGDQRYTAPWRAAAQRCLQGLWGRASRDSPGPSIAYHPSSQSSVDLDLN
Procedure, shortened: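 CHO-K1 cells stably expressing hTGR5, in PBS with IBMX and cAMP antibody, treated with half-log compound dilutions for 1 h at room temperature. cAMP measured by enzyme-fragment complementation luminescence after overnight detection; EC50 values reported.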

mouse TGR5 receptor = biological target: T2, mouse TGR5 receptor (Mus musculus, UniProt Q80SS6); assay: Mouse TGR5 HTRF cAMP production assay (HEK293-EBNA cells, Cisbio cAMP HiRange kit); type: cell-based; details: HEK293-EBNA cells overexpressing mouse TGR5, HTRF cAMP assay
T2 construct: host or cells: HEK293-EBNA (293 c18, ATCC CRL10852)
T2 sequence (Q80SS6 1-329): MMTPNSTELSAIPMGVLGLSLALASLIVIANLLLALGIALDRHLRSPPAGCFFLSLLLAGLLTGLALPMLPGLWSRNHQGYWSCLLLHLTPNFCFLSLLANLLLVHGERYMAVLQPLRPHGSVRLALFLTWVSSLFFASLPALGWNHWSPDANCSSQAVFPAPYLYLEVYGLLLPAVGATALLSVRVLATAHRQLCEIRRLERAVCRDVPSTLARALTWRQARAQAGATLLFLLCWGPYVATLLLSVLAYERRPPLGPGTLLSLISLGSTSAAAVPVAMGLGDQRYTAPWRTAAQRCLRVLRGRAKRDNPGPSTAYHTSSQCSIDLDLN
Procedure, shortened: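 HEK293-EBNA cells stably expressing mouse TGR5 (episomal vector) were suspended in serum-free DMEM with 500 μM IBMX and exposed to 12-point half-log compound dilutions for 1 h at room temperature. cAMP was detected by HTRF (d2-cAMP/anti-cAMP cryptate, 1 h, room temperature), giving EC50 from duplicates.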

Row | SMILES | EC50 (human TGR5 receptor) | EC50 (mouse TGR5 receptor)
1 | N#Cc1ccc(CCNC(=O)[C@@H]2CCN2c2cc(N3CCC(CCNC(=O)NCCOCCNC(=N)N)CC3)nc(C(F)(F)F)n2)cc1 [Compound 287, (S)-1-(6-(4-(1-amino-1-imino-9-oxo-5-oxa-2,8,10-triazadodecan-12-yl)piperidin-1-yl)-2-(trifluoromethyl)pyrimidin-4-yl)-N-(4-cyanophenethyl)azetidine-2-carboxamid] | < 100 nM | < 100 nM
2 | N#Cc1ccc(CCNC(=O)[C@@H]2CCCN2c2cc(N3CCC(CCNS(=O)(=O)CCNC(=O)[C@@H](N)CS(=O)(=O)O)CC3)nc(C(F)(F)F)n2)cc1 [Compound 125, (R)-2-amino-3-((2-(N-(2-(1-(6-((S)-2-((4-cyanophenethyl)carbamoyl)-pyrrolidin-1-yl)-2-(trifluoromethyl)-pyrimidin-4-yl)piperidin-4-yl)ethyl)sulfamoyl)ethyl)amino)-3-oxopropane-1-sulfonic acid] | < 100 nM | < 100 nM
3 | N#Cc1ccc(CCNC(=O)[C@@H]2CCCN2c2cc(N3CCC(CCCC(=O)O)CC3)cc(C(F)(F)F)n2)cc1 [Compound 197, (S)-4-(1-(2-(2-((4-cyanophenethyl)carbamoyl)pyrrolidin-1-yl)-6-(trifluoromethyl)pyridin-4-yl)piperidin-4-yl)butanoic acid] | < 100 nM | < 100 nM
4 | N#Cc1ccc(CCNC(=O)[C@@H]2CCCN2c2cc(-c3ccc(CO)cc3)cc(C(F)(F)F)n2)cc1 [Compound 204, (S)—N-(4-cyanophenethyl)-1-(4-(4-(hydroxymethyl)phenyl)-6-(trifluoromethyl)pyridin-2-yl)pyrrolidine-2-carboxamide] | < 100 nM | < 100 nM
5 | N#Cc1ccc(CCNC(=O)[C@@H]2CCCN2c2cc(-c3ccc(CCC(=O)NCS(=O)(=O)O)cc3)cc(C(F)(F)F)n2)cc1 [Compound 206, (S)-(3-(4-(2-(2-((4-cyanophenethyl)carbamoyl)pyrrolidin-1-yl)-6-(trifluoromethyl)pyridin-4-yl)phenyl)propanamido)methanesulfonic acid] | < 100 nM | < 100 nM
6 | N#Cc1ccc(CCNC(=O)[C@@H]2CCCN2c2cc(N3CCC(CCCC(=O)NCCS(=O)(=O)NCC(=O)O)CC3)nc(C(F)(F)F)n2)cc1 [Compound 115, (S)-2-(2-(4-(1-(6-(2-((4-cyanophenethyl)carbamoyl)pyrrolidin-1-yl)-2-(trifluoromethyl)pyrimidin-4-yl)piperidin-4-yl)butanamido)-ethylsulfonamido)acetic acid] | < 100 nM | < 100 nM
7 | N#Cc1ccc(CCNC(=O)[C@@H]2CCCN2c2cc(N3CCC(CCCC(=O)NCCS(=O)(=O)O)CC3)cc(C(F)(F)F)n2)cc1 [Compound 199, (S)-2-(4-(1-(2-(2-((4-cyanophenethyl)carbamoyl)pyrrolidin-1-yl)-6-(trifluoromethyl)pyridin-4-yl)piperidin-4-yl)butanamido)ethanesulfonic acid] | < 100 nM | < 100 nM
8 | N#Cc1ccc(CCNC(=O)[C@@H]2CCCN2c2cc(N3CCC(CCC(=O)O)CC3)nc(C(F)(F)F)n2)cc1 [Compound 28] | 100 to 999 nM | < 100 nM
9 | N#Cc1ccc(CCNC(=O)[C@@H]2CCCN2c2cc(N3CCC(CCNC(=N)N)CC3)nc(C(F)(F)F)n2)cc1 [Compound 126, (S)—N-(4-cyanophenethyl)-1-(6-(4-(2-guanidinoethyl)piperidin-1-yl)-2-(trifluoromethyl)pyrimidin-4-yl)pyrrolidine-2-carboxamide] | < 100 nM | < 100 nM
10 | N#Cc1ccc(CCNC(=O)[C@@H]2CCN2c2cc(N3CCC(CCO)CC3)nc(C(F)(F)F)n2)cc1 [Compound 223, (S)-N-(4-cyanophenethyl)-1-(6-(4-(2-hydroxyethyl)piperidin-1-yl)-2-(trifluoromethyl)pyrimidin-4-yl)azetidine-2-carboxamide] | < 100 nM | < 100 nM
11 | N#Cc1ccc(CCNC(=O)[C@@H]2CCCN2c2cc(N3CCC(CCC(=O)NCCS(=O)(=O)O)CC3)nc(C(F)(F)F)n2)cc1 [Compound 56, (S)-2-(3-(1-(6-(2-((4-cyanophenethyl)carbamoyl)pyrrolidin-1-yl)-2-(trifluoromethyl)pyrimidin-4-yl)piperidin-4-yl)propanamido)ethanesulfonic acid] | < 100 nM | < 100 nM
